# Results reported in ChEMBL document CHEMBL1201862, “PubChem BioAssay data set” (2004).
#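 Growth conditions: 96-well plates. Treatment: test compound, 48 hours, 5 concentrations. Analysis: linear interpolation between bracketing concentrations; unreached endpoints set to highest concentration. Abbreviation: GI50, concentration required for 50% inhibition of growth.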 The source made the active and inactive calls. Rule as the data show it: active = GI50 up to about 1.1 µM and inactive = higher.
# How the values were obtained:
# Experiment in all cases: DTP human tumour cell line panel, 48 h
# [1] = test system: SNB-78
# [2] = test system: HOP-92
# [3] = test system: XF498
# [4] = test system: M19-MEL
# [5] = test system: HOP-62
# [6] = test system: A549
# [7] = test system: HT-29
# [8] = test system: SK-MEL-5
# [9] = test system: RXF 631
# [10] = test system: HOP-18
# [11] = test system: KM-20L2
# [12] = test system: SK-MEL-28
# [13] = test system: SR
# [14] = test system: SNB-75
# [15] = test system: OVCAR-3
# [16] = test system: SW-620
# [17] = test system: SF-268
# [18] = test system: KM12
# [19] = test system: IGROV-1
# [20] = test system: UACC-257
# [21] = test system: HCT-116
# [22] = test system: TK-10
# [23] = test system: U-251
# [24] = test system: SNB-19
# [25] = test system: SK-OV-3
# [26] = test system: CCRF-CEM
# [27] = test system: MOLT-4
# [28] = test system: HCC 2998
# [29] = test system: NCI-H460
# [30] = test system: CAKI-1
# [31] = test system: UACC-62
# [32] = test system: OVCAR-5
# [33] = test system: M14
# [34] = test system: NCI-H522
# [35] = test system: COLO 205
# [36] = test system: EKVX
# [37] = test system: UO-31
# [38] = test system: ACHN
# [39] = test system: RXF 393
# [40] = test system: NCI-H23
# [41] = test system: OVCAR-4
# [42] = test system: DLD-1
# [43] = test system: NCI-H226
# [44] = test system: LOX IMVI
# [45] = test system: HCT-15
# [46] = test system: LXFL 529
# [47] = test system: SN12C
# [48] = test system: SF-295
# [49] = test system: K562
# [50] = test system: RPMI-8226
# [51] = test system: OVCAR-8
# [52] = test system: SF-539
# [53] = test system: DMS-114
# [54] = test system: A498
# [55] = test system: HL-60
# [56] = test system: Malme-3M
# [57] = test system: 786-0
# [58] = test system: SK-MEL-2
# [59] = test system: DMS-273
compound,measurement,setting,value
O=C(Nc1ccc(Cl)cc1Cl)C(=O)C(C(=O)c1ccncc1)C1OC(=O)c2ccccc21 (centres undefined),GI50,[1],> 100 µM (inactive)
same,GI50,[2],> 100 µM (inactive)
same,GI50,[3],> 100 µM (inactive)
same,GI50,[4],> 100 µM (inactive)
same,GI50,[5],> 100 µM (inactive)
same,GI50,[6],> 100 µM (inactive)
same,GI50,[7],> 100 µM (inactive)
same,GI50,[8],> 100 µM (inactive)
same,GI50,[9],> 100 µM (inactive)
same,GI50,[10],> 100 µM (inactive)
same,GI50,[11],> 100 µM (inactive)
same,GI50,[12],> 100 µM (inactive)
same,GI50,[13],> 100 µM (inactive)
same,GI50,[14],> 100 µM (inactive)
same,GI50,[15],> 100 µM (inactive)
same,GI50,[16],> 100 µM (inactive)
same,GI50,[17],> 100 µM (inactive)
same,GI50,[18],> 100 µM (inactive)
same,GI50,[19],> 100 µM (inactive)
same,GI50,[20],> 100 µM (inactive)
same,GI50,[21],> 100 µM (inactive)
same,GI50,[22],> 100 µM (inactive)
same,GI50,[23],> 100 µM (inactive)
same,GI50,[24],> 100 µM (inactive)
same,GI50,[25],> 100 µM (inactive)
same,GI50,[26],> 100 µM (inactive)
same,GI50,[27],> 100 µM (inactive)
same,GI50,[28],> 100 µM (inactive)
same,GI50,[29],> 100 µM (inactive)
same,GI50,[30],> 100 µM (inactive)
same,GI50,[31],> 100 µM (inactive)
same,GI50,[32],> 100 µM (inactive)
same,GI50,[33],> 100 µM (inactive)
same,GI50,[34],> 100 µM (inactive)
same,GI50,[35],> 100 µM (inactive)
same,GI50,[36],> 100 µM (inactive)
same,GI50,[37],> 100 µM (inactive)
same,GI50,[38],> 100 µM (inactive)
same,GI50,[39],> 100 µM (inactive)
same,GI50,[40],> 100 µM (inactive)
same,GI50,[41],> 100 µM (inactive)
same,GI50,[42],> 100 µM (inactive)
same,GI50,[43],> 100 µM (inactive)
same,GI50,[44],> 100 µM (inactive)
same,GI50,[45],> 100 µM
same,GI50,[46],> 100 µM (inactive)
same,GI50,[47],> 100 µM (inactive)
same,GI50,[48],> 100 µM (inactive)
same,GI50,[49],> 100 µM (inactive)
same,GI50,[50],> 100 µM (inactive)
same,GI50,[51],> 100 µM (inactive)
same,GI50,[52],> 100 µM (inactive)
same,GI50,[53],> 100 µM (inactive)
same,GI50,[54],> 100 µM (inactive)
same,GI50,[55],> 100 µM (inactive)
same,GI50,[56],> 100 µM (inactive)
same,GI50,[57],> 100 µM (inactive)
CC(C)C1CC[C@@H](C)C[C@@]1(O)CC(N)=O (some centres undefined),GI50,[1],> 100 µM (inactive)
same,GI50,[2],< 0.01 µM (active)
same,GI50,[3],0.0344 µM (active)
same,GI50,[4],> 100 µM (inactive)
same,GI50,[6],> 100 µM (inactive)
same,GI50,[7],> 100 µM (inactive)
same,GI50,[8],> 100 µM (inactive)
same,GI50,[9],> 100 µM (inactive)
same,GI50,[10],> 100 µM (inactive)
same,GI50,[11],> 100 µM (inactive)
same,GI50,[12],> 100 µM (inactive)
same,GI50,[13],> 100 µM (inactive)
same,GI50,[14],66.2 µM (inactive)
same,GI50,[15],> 100 µM (inactive)
same,GI50,[16],> 100 µM (inactive)
same,GI50,[18],> 100 µM (inactive)
same,GI50,[19],> 100 µM (inactive)
same,GI50,[20],> 100 µM (inactive)
same,GI50,[21],> 100 µM (inactive)
same,GI50,[22],> 100 µM (inactive)
same,GI50,[23],> 100 µM (inactive)
same,GI50,[24],> 100 µM (inactive)
same,GI50,[25],> 100 µM (inactive)
same,GI50,[27],> 100 µM (inactive)
same,GI50,[28],> 100 µM (inactive)
same,GI50,[29],> 100 µM (inactive)
same,GI50,[30],> 100 µM (inactive)
same,GI50,[31],> 100 µM (inactive)
same,GI50,[32],> 100 µM (inactive)
same,GI50,[33],> 100 µM (inactive)
same,GI50,[34],> 100 µM (inactive)
same,GI50,[35],> 100 µM (inactive)
same,GI50,[36],> 100 µM (inactive)
same,GI50,[37],> 100 µM (inactive)
same,GI50,[38],> 100 µM (inactive)
same,GI50,[40],> 100 µM (inactive)
same,GI50,[41],> 100 µM (inactive)
same,GI50,[42],> 100 µM (inactive)
same,GI50,[43],> 100 µM (inactive)
same,GI50,[45],> 100 µM
same,GI50,[46],> 100 µM (inactive)
same,GI50,[47],> 100 µM (inactive)
same,GI50,[48],> 100 µM (inactive)
same,GI50,[49],> 100 µM (inactive)
same,GI50,[50],> 100 µM (inactive)
same,GI50,[58],> 100 µM (inactive)
same,GI50,[51],> 100 µM (inactive)
same,GI50,[52],> 100 µM (inactive)
same,GI50,[53],> 100 µM (inactive)
same,GI50,[59],> 100 µM (inactive)
same,GI50,[56],> 100 µM (inactive)
same,GI50,[57],> 100 µM (inactive)
